In patent US20240400577A1, “MODULATORS OF PROTEIN KINASES” (VIBLIOME THERAPEUTICS, LLC, priority 2021, published 2024):
pIC50: −log10 of the molar value.

Legend:
Test in all cases: Kinase panel enzymatic inhibition assay (Nanosyn)
Type in all cases: biochemical
SYK = target: T1, SYK (Homo sapiens, UniProt P43405); conditions: ATP at Km; 30-minute pre-incubation; read-out: kinase inhibition in terms of IC50, SYK
T1 construct: purchased Nanosyn
Method in brief: (§1)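 Inhibition is expressed as percent at 5 μM or as IC50, with ATP set at the Km of each kinase and a 30-minute compound pre-incubation. Detection used an accepted enzymatic format such as Caliper mobility shift.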

TYRO3 = target: T2, TYRO3 (Homo sapiens, UniProt Q06418); conditions: ATP at Km; 30-minute pre-incubation; read-out: kinase inhibition in terms of IC50, TYRO3
T2 construct: purchased Nanosyn
T2 sequence (Q06418 41-890): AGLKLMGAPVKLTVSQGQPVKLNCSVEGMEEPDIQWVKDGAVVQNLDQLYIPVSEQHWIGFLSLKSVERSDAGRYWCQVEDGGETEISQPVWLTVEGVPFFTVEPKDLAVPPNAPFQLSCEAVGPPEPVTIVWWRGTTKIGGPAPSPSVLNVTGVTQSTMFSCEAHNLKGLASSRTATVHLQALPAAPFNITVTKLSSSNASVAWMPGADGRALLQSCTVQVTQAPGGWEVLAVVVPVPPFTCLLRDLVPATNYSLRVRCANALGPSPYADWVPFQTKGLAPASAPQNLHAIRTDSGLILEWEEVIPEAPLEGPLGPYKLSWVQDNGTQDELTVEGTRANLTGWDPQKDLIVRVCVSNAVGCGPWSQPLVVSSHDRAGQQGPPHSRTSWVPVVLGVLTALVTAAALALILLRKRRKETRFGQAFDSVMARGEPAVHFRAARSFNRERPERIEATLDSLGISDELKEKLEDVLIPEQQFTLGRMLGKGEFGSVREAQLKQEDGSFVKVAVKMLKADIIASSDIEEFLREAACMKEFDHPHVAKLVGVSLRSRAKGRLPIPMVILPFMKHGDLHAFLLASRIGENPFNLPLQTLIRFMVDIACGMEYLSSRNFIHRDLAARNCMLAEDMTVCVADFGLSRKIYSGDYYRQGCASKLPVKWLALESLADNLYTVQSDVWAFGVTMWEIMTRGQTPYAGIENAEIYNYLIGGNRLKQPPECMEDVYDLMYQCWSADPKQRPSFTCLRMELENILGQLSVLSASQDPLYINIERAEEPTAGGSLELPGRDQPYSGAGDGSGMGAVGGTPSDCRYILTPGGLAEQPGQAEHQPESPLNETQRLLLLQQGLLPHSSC
Method in brief: as §1

RIPK1 = target: T3, RIPK1 (Homo sapiens, UniProt Q13546); conditions: ATP at Km; 30-minute pre-incubation; read-out: kinase inhibition in terms of IC50, RIPK1
T3 construct: purchased Nanosyn
T3 sequence (Q13546 1-671): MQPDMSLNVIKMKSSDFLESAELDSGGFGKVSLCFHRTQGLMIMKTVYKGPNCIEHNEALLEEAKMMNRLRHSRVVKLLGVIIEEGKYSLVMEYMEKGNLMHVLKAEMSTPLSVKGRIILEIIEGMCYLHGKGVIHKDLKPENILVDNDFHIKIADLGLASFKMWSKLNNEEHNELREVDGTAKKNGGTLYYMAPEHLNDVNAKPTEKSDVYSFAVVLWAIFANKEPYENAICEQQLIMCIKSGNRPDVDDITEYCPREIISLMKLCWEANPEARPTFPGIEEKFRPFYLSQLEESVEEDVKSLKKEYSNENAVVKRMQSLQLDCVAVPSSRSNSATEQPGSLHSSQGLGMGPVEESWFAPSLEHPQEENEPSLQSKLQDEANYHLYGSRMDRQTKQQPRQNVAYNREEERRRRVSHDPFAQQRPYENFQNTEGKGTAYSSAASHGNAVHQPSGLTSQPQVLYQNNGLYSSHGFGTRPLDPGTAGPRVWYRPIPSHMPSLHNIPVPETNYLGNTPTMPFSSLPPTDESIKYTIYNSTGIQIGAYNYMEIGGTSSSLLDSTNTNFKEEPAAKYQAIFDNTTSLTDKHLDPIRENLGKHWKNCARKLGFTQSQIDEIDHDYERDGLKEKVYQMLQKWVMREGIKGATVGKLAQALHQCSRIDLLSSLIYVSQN
Method in brief: as §1

RIPK3 = target: T4, RIPK3 (Homo sapiens, UniProt Q9Y572); conditions: ATP at Km; 30-minute pre-incubation; read-out: kinase inhibition in terms of IC50, RIPK3
T4 construct: purchased Nanosyn
Method in brief: as §1

ITK = target: T5, ITK (Homo sapiens, UniProt Q08881); conditions: ATP at Km; 30-minute pre-incubation; read-out: kinase inhibition in terms of IC50, ITK
T5 construct: Nanosyn (contract laboratory that ran the panel)
T5 sequence (Q08881 1-620): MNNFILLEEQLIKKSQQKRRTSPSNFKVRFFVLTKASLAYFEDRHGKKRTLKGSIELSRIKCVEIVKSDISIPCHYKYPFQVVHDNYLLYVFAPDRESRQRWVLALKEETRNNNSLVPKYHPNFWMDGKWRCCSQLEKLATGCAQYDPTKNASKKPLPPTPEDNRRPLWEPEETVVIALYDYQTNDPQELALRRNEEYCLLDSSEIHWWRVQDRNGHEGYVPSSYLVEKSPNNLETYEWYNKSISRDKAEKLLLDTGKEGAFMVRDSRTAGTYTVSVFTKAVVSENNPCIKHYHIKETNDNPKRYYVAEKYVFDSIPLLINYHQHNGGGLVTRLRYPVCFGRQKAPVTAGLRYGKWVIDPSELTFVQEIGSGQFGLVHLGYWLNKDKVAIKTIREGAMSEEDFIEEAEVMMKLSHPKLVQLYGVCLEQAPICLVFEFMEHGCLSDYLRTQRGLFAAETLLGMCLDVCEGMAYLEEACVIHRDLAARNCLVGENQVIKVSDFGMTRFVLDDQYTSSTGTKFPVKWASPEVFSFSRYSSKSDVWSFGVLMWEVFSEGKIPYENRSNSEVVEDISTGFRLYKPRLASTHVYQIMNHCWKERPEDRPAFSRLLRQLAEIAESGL
Method in brief: as §1

TYK2 = target: T6, TYK2 (Homo sapiens, UniProt P29597); conditions: ATP at Km; 30-minute pre-incubation; read-out: kinase inhibition in terms of IC50, TYK2
T6 construct: purchased Nanosyn
Method in brief: as §1

T6 sequence (P29597 whole entry): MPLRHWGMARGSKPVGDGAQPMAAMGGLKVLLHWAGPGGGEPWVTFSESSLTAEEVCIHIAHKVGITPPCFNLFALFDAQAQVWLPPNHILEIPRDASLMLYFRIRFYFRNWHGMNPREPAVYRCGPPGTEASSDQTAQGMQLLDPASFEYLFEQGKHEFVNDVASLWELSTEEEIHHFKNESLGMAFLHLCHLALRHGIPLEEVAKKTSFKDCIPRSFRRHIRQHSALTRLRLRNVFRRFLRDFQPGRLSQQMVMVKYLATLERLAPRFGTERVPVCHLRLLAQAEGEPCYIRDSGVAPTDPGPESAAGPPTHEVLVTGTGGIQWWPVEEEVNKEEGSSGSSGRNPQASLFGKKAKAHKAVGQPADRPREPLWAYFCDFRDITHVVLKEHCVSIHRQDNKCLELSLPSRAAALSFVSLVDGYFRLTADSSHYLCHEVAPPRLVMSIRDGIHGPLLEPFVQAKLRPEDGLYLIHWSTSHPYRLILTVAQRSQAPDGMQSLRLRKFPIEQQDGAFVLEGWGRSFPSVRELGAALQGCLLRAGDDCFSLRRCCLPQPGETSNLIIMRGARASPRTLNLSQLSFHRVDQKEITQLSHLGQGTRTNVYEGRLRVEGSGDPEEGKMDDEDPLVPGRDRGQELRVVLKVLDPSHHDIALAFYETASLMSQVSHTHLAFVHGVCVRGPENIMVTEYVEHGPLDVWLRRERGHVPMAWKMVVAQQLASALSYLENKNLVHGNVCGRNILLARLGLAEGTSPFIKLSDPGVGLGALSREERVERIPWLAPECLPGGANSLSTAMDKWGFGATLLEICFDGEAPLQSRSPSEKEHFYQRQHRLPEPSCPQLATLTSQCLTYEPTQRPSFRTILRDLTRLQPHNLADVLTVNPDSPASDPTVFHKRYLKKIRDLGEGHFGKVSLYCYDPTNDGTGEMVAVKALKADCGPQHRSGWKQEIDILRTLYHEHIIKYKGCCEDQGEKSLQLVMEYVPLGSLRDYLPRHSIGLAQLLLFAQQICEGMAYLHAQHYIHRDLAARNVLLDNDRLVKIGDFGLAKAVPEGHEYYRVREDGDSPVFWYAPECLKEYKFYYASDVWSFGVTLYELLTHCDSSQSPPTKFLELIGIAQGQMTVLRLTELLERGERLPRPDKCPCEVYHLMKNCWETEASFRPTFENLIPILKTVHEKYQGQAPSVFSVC
T4 sequence (Q9Y572 whole entry): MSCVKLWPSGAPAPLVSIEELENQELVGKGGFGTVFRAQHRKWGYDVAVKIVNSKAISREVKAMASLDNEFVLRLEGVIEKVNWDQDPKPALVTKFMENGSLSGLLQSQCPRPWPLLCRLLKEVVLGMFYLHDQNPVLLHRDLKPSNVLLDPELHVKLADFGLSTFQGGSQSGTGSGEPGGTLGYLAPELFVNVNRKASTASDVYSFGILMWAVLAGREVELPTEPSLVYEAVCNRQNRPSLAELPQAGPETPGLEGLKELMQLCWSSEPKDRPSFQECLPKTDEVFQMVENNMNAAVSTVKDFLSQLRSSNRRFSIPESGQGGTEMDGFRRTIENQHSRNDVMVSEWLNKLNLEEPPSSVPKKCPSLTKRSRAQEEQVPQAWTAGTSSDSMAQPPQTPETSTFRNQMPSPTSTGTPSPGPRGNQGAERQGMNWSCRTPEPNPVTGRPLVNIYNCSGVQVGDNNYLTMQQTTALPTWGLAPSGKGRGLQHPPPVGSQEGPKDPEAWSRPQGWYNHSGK

| pIC50 (SYK) | pIC50 (TYRO3) | pIC50 (RIPK1) | pIC50 (RIPK3) | pIC50 (ITK) | pIC50 (TYK2) | Compound |
| --- | --- | --- | --- | --- | --- | --- |
| ≤ 5.00 | > 6.30 | ≤ 5.00 | 5.00 to 6.00 | ≤ 5.00 | ≤ 5.00 | COc1cc2nccc(Oc3ccc(NC(=O)c4cc(S(C)(=O)=O)n(-c5ccc(F)cc5)n4)c(F)c3)c2cc1OC [Ex71, N-(4-((6,7-dimethoxyquinolin-4-yl)oxy)-2-fluorophenyl)-1-(4-fluorophenyl)-5-(methylsulfonyl)-1H-pyrazole-3-carboxamide] |
| 5.00 to 6.00 | – | – | – | – | 5.00 to 6.00 | COc1cc2nccc(Oc3ccc(NC(=O)c4cc(S(C)(=O)=O)n(-c5ccc(F)cc5)n4)cc3)c2cc1OC [Ex72, N-(4-((6,7-dimethoxyquinolin-4-yl)oxy)phenyl)-1-(4-fluorophenyl)-5-(methylsulfonyl)-1H-pyrazole-3-carboxamide] |
| ≤ 5.00 | 5.00 to 6.00 | – | – | 5.00 to 6.00 | – | COc1cc2nccc(Oc3ccc(NC(=O)c4cc(S(C)(=O)=O)n(-c5ccc(F)cc5)n4)cc3F)c2cc1OC [Ex73, N-(4-((6,7-dimethoxyquinolin-4-yl)oxy)-3-fluorophenyl)-1-(4-fluorophenyl)-5-(methylsulfonyl)-1H-pyrazole-3-carboxamide] |
